Experimental findings from patent US20120094964A1, “SULFAMOYL BENZOIC ACID DERIVATIVES AS TRPM8 ANTAGONISTS” (priority 2009, published 2012) are described below.

Structures are written as SMILES. Bounds are passed on as bounds.

The target of this test is T1, human TRPM8 (Homo sapiens, UniProt Q7Z2W7).
T1 construct: expressed in transfected cells
The test is described as follows: In Vitro human TRPM8 Functional Assay (intracellular Ca2+, Fluo4, FDSS, menthol activation). The format is cell-based. The following applies: HEK293 cells stably expressing human TRPM8; activation with L-(-)-Menthol; 11-point dose-response. As to the method:
In Vitro human TRPM8 Functional Assay
The functional activity of compounds was determined by measuring changes in intracellular calcium concentration using a Ca^2+-sensitive fluorescent dye, Fluo4 (Molecular Probes). The changes in fluorescent signal were monitored by the cell imaging technology by Hamamatsu Photonics's Functional Drug Screening System (FDSS).
HEK293 cells stably expressing human TRPM8 were grown in T175 flasks, in a 5% CO2 humidified incubator to about 80% confluence. Media composition consisted of Dulbecco's Modified Eagle Medium (high glucose), 10% fetal calf serum (FCS), 100 units/ml Penicillin, 100 microg/ml Streptomycin and 600 microg/ml Geneticine.
1. Plate-out HEK293-TRPM8 cells (40 microL medium containing 30,000 cells per well) into poly-D-lysine coated 384-well plates (BD FALCON) at 24 hours prior to assay.
1. […] 2. […] 3. Place the plate at room temperature in dark for 1 hour. 4. […] 5. Add 20 microL of compound solutions into each well and leave the plate for 5 minutes under the dark at room temperature. 6. Measure activity by FDSS as follows: • Set the assay plate on the stacker of FDSS • Start the detection of fluorescence intensity • After 30 sec, add 20 microL of 90 microM L-(−)-Menthol
IC50 values for compounds of the present invention were determined from 11-point dose-response studies. Curves were generated using the average of duplicate wells for each data point. Finally, the IC50 values are calculated with the best-fit dose curve determined by XLfit (ID Business Solutions Ltd.).

T1 sequence (Q7Z2W7 whole entry): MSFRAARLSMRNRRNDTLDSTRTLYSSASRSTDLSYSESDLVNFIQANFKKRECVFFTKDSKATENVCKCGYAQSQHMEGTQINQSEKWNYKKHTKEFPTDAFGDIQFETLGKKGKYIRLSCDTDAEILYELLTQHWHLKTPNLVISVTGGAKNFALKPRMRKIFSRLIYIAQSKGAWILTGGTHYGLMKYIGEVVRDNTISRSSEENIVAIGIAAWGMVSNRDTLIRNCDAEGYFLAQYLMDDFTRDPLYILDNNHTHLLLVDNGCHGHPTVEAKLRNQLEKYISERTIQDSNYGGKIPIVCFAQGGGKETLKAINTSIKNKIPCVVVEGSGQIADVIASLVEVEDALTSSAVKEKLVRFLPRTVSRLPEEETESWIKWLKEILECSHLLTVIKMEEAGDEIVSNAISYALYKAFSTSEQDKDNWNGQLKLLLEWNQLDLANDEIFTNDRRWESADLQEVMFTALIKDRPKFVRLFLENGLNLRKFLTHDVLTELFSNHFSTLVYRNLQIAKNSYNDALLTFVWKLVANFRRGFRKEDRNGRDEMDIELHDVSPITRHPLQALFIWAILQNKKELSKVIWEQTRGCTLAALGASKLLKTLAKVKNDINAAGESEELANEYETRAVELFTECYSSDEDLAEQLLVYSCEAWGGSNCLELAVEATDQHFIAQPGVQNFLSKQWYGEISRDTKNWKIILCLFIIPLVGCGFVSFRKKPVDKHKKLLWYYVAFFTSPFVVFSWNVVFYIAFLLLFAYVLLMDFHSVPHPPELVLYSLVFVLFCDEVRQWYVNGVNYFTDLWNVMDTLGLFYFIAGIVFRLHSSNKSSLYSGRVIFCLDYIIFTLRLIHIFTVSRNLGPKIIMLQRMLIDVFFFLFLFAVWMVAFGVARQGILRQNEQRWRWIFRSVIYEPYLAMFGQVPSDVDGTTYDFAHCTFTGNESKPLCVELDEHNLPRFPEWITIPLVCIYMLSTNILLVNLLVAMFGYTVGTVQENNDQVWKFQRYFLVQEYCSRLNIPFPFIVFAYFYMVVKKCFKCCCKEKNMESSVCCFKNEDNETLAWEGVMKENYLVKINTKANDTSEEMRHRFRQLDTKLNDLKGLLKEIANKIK

`COc1ccc(OC)c(C(C)N(c2cccc(Cl)c2)S(=O)(=O)c2ccc(C)cc2)c1` (centres unmarked) [Example 86, N-(3-Chlorophenyl)-N-(1-(2,5-dimethoxyphenyl)ethyl)-4-methylbenzene-sulfonamide] came in with a concentration for half-maximal inhibition (IC50) of 1 to 10 µM.
In the case of `COc1ccc(N(C(C)c2ccc(Cl)cc2)S(=O)(=O)c2ccccc2)cc1` (centres unmarked) [Example 87, N-(1-(4-Chlorophenyl)ethyl)-N-(4-methoxyphenyl) benzenesulfonamide], the IC50 lay in the range of 1 to 10 µM.
For `COc1ccc(N(C(C)c2ccccc2F)S(=O)(=O)c2ccc(F)cc2)cc1` (centres unmarked) [Example 88, 4-Fluoro-N-(1-(2-fluorophenyl)ethyl)-N-(4-methoxyphenyl)benzene-sulfonamide] the value was under 1 µM.
For `COc1ccc(N(C(C)c2ccccc2OC)S(=O)(=O)c2ccc(C)cc2)cc1` (centres unmarked) [Example 89, N-(4-Methoxyphenyl)-N-(1-(2-methoxyphenyl)ethyl)-4-methylbenzene-sulfonamide] the value was 1 to 10 µM; for `COc1cccc(N(C(C)c2cc(OC)ccc2OC)S(=O)(=O)c2ccccc2F)c1` (centres unmarked) [Example 90, N-(1-(2,5-Dimethoxyphenyl)ethyl)-2-fluoro-N-(3-methoxyphenyl)benzene-sulfonamide], 1 to 10 µM.
The compound `Cc1cccc(N(C(C)c2ccccc2F)S(=O)(=O)c2ccccc2F)c1` (centres unmarked) [Example 91, 2-Fluoro-N-(1-(2-fluoro-phenyl)ethyl)-N-m-tolyl benzenesulfonamide] had an IC50 of 1 to 10 µM.
On to `COc1cccc(N(C(C)c2ccccc2F)S(=O)(=O)c2ccccc2F)c1` (centres unmarked) [Example 92, 2-Fluoro-N-(1-(2-fluorophenyl)ethyl)-N-(3-methoxyphenyl)benzene-sulfonamide], for which the IC50 lay in the range of 1 to 10 µM.
Under `COc1ccc(N(C(C)c2ccccc2OC)S(=O)(=O)c2ccccc2F)cc1OC` (centres unmarked) [Example 93, N-(3,4-Dimethoxyphenyl)-2-fluoro-N-(1-(2-methoxy-phenyl)ethyl)benzene-sulfonamide] stands 1 to 10 µM; under `COc1cccc(N(C(C)c2ccccc2)S(=O)(=O)c2ccc(F)c(Cl)c2)c1` (centres unmarked) [Example 94, 3-Chloro-4-fluoro-N-(3-methoxyphenyl)-N-(1-phenylethyl)benzene-sulfonamide], 1 to 10 µM; under `COc1cccc(N(C(C)c2ccccc2C)S(=O)(=O)c2ccc(C)c(Cl)c2)c1` (centres unmarked) [Example 95, 3-Chloro-N-(3-methoxy-phenyl)-4-methyl-N-(1-o-tolylethyl)benzene-sulfonamide], 10 to 30 µM.
For `COc1ccc(OC)c(C(C)N(c2ccc(C)cc2)S(=O)(=O)c2ccc(F)cc2C)c1` (centres unmarked) [Example 96, N-(1-(2,5-Dimethoxyphenyl)ethyl)-4-fluoro-2-methyl-N-p-tolylbenzenesulfonamide] the value was 1 to 10 µM; for `COc1ccc(N(C(C)c2ccccc2F)S(=O)(=O)c2ccc(F)c(Cl)c2)cc1` (centres unmarked) [Example 97, 3-Chloro-4-fluoro-N-(1-(2-fluorophenyl)ethyl)-N-(4-methoxyphenyl) benzenesulfonamide], 1 to 10 µM; for `Cc1cccc(N(C(C)c2ccccc2F)S(=O)(=O)c2ccc(F)cc2C)c1` (centres unmarked) [Example 98, 4-Fluoro-N-(1-(2-fluorophenyl)ethyl)-2-methyl-N-m-tolylbenzenesulfonamide], 1 to 10 µM.
For `Cc1cccc(N(C(C)c2ccccc2F)S(=O)(=O)c2cc(F)ccc2C)c1` (centres unmarked) [Example 99, 5-Fluoro-N-(1-(2-fluoro-phenyl)ethyl)-2-methyl-N-m-tolylbenzenesulfonamide] the value was 1 to 10 µM; for `Cc1cccc(N(C(C)c2ccccc2F)S(=O)(=O)c2ccccc2C)c1` (centres unmarked) [Example 100, N-(1-(2-Fluorophenyl)ethyl)-2-methyl-N-tolyl benzenesulfonamide], 1 to 10 µM; for `COc1cccc(C(C)N(c2ccccc2)S(=O)(=O)c2ccc(C)c(F)c2)c1` (centres unmarked) [Example 101, 3-Fluoro-N-(1-(3-methoxyphenyl)ethyl)-4-methyl-N-phenylbenzene-sulfonamide], 1 to 10 µM.
`COc1cccc(C(C)N(c2cccc(OC)c2)S(=O)(=O)c2ccc(C)c(Cl)c2)c1` (centres unmarked) [Example 102, 3-Chloro-N-(3-methoxyphenyl)-N-(1-(3-methoxy-phenyl)ethyl)-4-methyl benzenesulfonamide] displayed an IC50 of 1 to 10 µM.
`COc1cccc(C(C)N(c2cccc(OC)c2)S(=O)(=O)c2ccc(C)c(F)c2)c1` (centres unmarked) [Example 103, 3-Fluoro-N-(3-methoxyphenyl)-N-(1-(3-methoxy-phenyl)ethyl)-4-methyl benzenesulfonamide]: the IC50 lay in the range of 1 to 10 µM.
For `COc1ccc(N(C(C)c2ccccc2OC)S(=O)(=O)c2ccc(C)c(Cl)c2)cc1` (centres unmarked) [Example 104, 3-Chloro-N-(4-methoxyphenyl)-N-(1-(2-methoxy-phenyl)ethyl)-4-methyl benzenesulfonamide] the value was 10 to 30 µM; for `COc1ccccc1C(C)N(c1cccc(F)c1)S(=O)(=O)c1ccc(C)c(Cl)c1` (centres unmarked) [Example 105, 3-Chloro-N-(3-fluorophenyl)-N-(1-(2-methoxyphenyl)ethyl)-4-methylbenzene-sulfonamide], 1 to 10 µM; for `Cc1ccc(S(=O)(=O)N(Cc2ccccc2)c2ccccn2)cc1` [Example 106, N-Benzyl-4-methyl-N-(pyridin-2-yl) benzenesulfonamide], 1 to 10 µM.
Compound `CC(=O)Nc1ccc(S(=O)(=O)N(Cc2ccccc2)c2ccccn2)cc1` [Example 107, N-(4-(N-Benzyl-N-(pyridin-2-yl)sulfamoyl)phenyl)acetamide] gave an IC50 of 1 to 10 µM.
In turn, `O=S(=O)(c1ccc(F)cc1)N(Cc1ccccc1)c1ccccn1` [Example 108, N-Benzyl-4-fluoro-N-(pyridin-2-yl)benezene-sulfonamide] came in with an IC50 of 1 to 10 µM.
Under `O=S(=O)(c1cc(Cl)ccc1Cl)N(Cc1ccccc1)c1ccccn1` [Example 109, N-Benzyl-2,5-dichloro-N-(pyridin-2-yl)benzene sulfonamide] stands 1 to 10 µM.
For `O=C(O)c1ccc(Cl)c(S(=O)(=O)N(Cc2ccccc2)c2ccc(Cl)cc2)c1` [Example 110, 3-(N-Benzyl-N-(4-chlorophenyl)sulfamoyl)-4-chlorobenzoic acid] the value was 1 to 10 µM; for `O=C(O)c1cccc(S(=O)(=O)N(Cc2ccccc2)c2cccc(C(F)(F)F)c2)c1` [Example 111, 3-(N-Benzyl-N-(3-(trifluoromethyl)phenyl)sulfamoyl)benzoic acid], 1 to 10 µM; for `O=C(O)c1cccc(S(=O)(=O)N(Cc2ccccc2)c2ccccc2Cl)c1` [Example 112, 3-(N-Benzyl-N-(2-chlorophenyl)sulfamoyl) benzoic acid], 10 to 30 µM.
For `COc1ccc(N(Cc2ccccc2)S(=O)(=O)c2cccc(C(=O)O)c2)cc1` [Example 113, 3-(N-Benzyl-N-(4-methoxyphenyl)sulfamoyl) benzoic acid] the value was 1 to 10 µM.
As for `COc1ccccc1N(Cc1ccccc1)S(=O)(=O)c1cccc(C(=O)O)c1` [Example 114, 3-(N-Benzyl-N-(2-methoxyphenyl)sulfamoyl) benzoic acid], the IC50 was 10 to 30 µM.
For `O=C(O)c1cccc(S(=O)(=O)N(Cc2ccccc2)c2ccc(Cl)cc2)c1` [Example 115, 3-(N-Benzyl-N-(4-chlorophenyl)sulfamoyl) benzoic acid] the value was 1 to 10 µM; for `O=C(O)c1cccc(S(=O)(=O)N(Cc2ccccc2)c2ccccc2)c1` [Example 116, 3-(N-Benzyl-N-phenylsulfamoyl)benozic acid], 10 to 30 µM; for `O=C(O)c1cc(S(=O)(=O)N(Cc2ccccc2)c2ccccc2)ccc1Cl` [Example 117, 5-(N-Benzyl-N-phenylsulfamoyl)-2-chlorobenzoic acid], 10 to 30 µM.
Under `COc1ccccc1N(Cc1ccccc1)S(=O)(=O)c1cc(C(=O)O)ccc1Cl` [Example 118, 3-(N-Benzyl-N-(2-methoxyphenyl)sulfamoyl)-4-chlorobenzoic acid] stands 1 to 10 µM; under `COc1ccc(N(Cc2ccccc2)S(=O)(=O)c2ccc(Cl)c(C(=O)O)c2)cc1` [Example 119, 5-(N-Benzyl-N-(4-methoxyphenyl)sulfamoyl)-2-chlorobenzoic acid], 10 to 30 µM; under `O=C(O)c1ccc(Cl)c(S(=O)(=O)N(Cc2ccccc2)c2ccccc2Cl)c1` [Example 120, 3-(N-Benzyl-N-(2-chlorophenyl)sulfamoyl)-4-chlorobenzoic acid], 1 to 10 µM.
Under `O=C(O)c1cc(S(=O)(=O)N(Cc2ccccc2)c2ccccc2Cl)ccc1Cl` [Example 121, 5-(N-Benzyl-N-(2-chlorophenyl)sulfamoyl)-2-chlorobenzoic acid] stands 1 to 10 µM.
Compound `O=C(O)c1cc(S(=O)(=O)N(Cc2ccccc2)c2ccc(Cl)cc2)ccc1Cl` [Example 122, 5-(N-Benzyl-N-(4-chlorophenyl)sulfamoyl)-2-chlorobenzoic acid] registered an IC50 of 1 to 10 µM.
For `O=C(O)c1ccc(Cl)c(S(=O)(=O)N(Cc2ccccc2)c2ccc(F)cc2)c1` [Example 123, 3-(N-Benzyl-N-(4-fluorophenyl)sulfamoyl)-4-chlorobenzoic acid] the value was 10 to 30 µM.

One may read the IC50 as the concentration that gives 50% inhibition. Read a high IC50 as lower potency.
